Reference: patent US20110201603A1, “Novel Acylaminobenzamide Derivatives” (Bayer CropScience AG, priority 2008, published 2011)

Tests used:
[1] = tested on: tobacco cutworm (Spodoptera litura) larvae; test: Test against tobacco cutworm (Spodoptera litura) larvae, leaf dip; assay type: in vivo; conditions: active compound concentration of 100 ppm; third-instar larvae on sweet potato leaves; after 7 days
Experimental: (§1) Unless not mentioned otherwise, the test solutions were prepared as follows:
(§2) Containing as solvent: Dimethylformamide, 3 parts by weight; and as emulsifier: Polyoxyethylene alkyl phenyl ether, 1 part by weight
(§3) To prepare the test solution, 1 part by weight of an active compound is mixed with the above-mentioned amount of solvent containing the above-mentioned amount of emulsifier, and the mixture is diluted with water to the desired concentration.
The leaves of sweet potato were immersed in the test solution at the appropriate concentration, and the leaves were dried in air. The leaves were then placed in a petri dish having a diameter of 9 cm, and ten third-instar larvae of tobacco cutworm were released therein. The petri dish was placed in a temperature-controlled chamber at 25° C. After 2 days and 4 days sweet potato leaves were additionally added. After 7 days, the number of dead larvae was counted to calculate the insecticidal activity. An insecticidal activity of 100% means that all larvae were killed, whereas an insecticidal activity of 0% means that no larva was killed. In the current test, the results of two petri dishes for each partition were averaged.

[2] = tested on: cucurbit leaf beetle (Aulacophora femoralis); test: Test against cucurbit leaf beetle (Aulacophora femoralis), leaf dip; assay type: in vivo; conditions: active compound concentration of 100 ppm; second-instar larvae on cucumber leaves; after 7 days
Experimental: as §1, §2, §3
Cucumber leaves were immersed in the test solution at the appropriate concentration, and the leaves were dried in air. The leaves were then placed in a plastic cup containing sterilized black soil, and five second-instar larvae of cucurbit leaf beetle were released therein. The plastic cup was placed in a temperature-controlled chamber at 25° C. After 7 days, the number of dead larvae was counted, and thus the insecticidal activity was calculated. An insecticidal activity of 100% means that all beetles were killed, whereas an insecticidal activity of 0% means that no beetle was killed.

Cc1cc(C(Oc2ccc(Cl)cc2)(C(F)(F)F)C(F)(F)F)cc(C)c1NC(=O)c1cccc(NC(=O)c2cccnc2Cl)c1 [1-160]
insecticidal activity [1]: 100% | insecticidal activity [2]: 100%

CCc1cc(C(OCC(F)(F)F)(C(F)(F)F)C(F)(F)F)cc(C)c1NC(=O)c1cccc(NC(=O)c2cccnc2Cl)c1 [1-146]
insecticidal activity [1]: 100% | insecticidal activity [2]: 100%

CC#CCOC(c1cc(I)c(NC(=O)c2cccc(NC(=O)c3ccccc3)c2)c(I)c1)(C(F)(F)F)C(F)(F)F [1-83]
insecticidal activity [1]: 100% | insecticidal activity [2]: 100%

CCc1cc(C(Oc2ccc(OC(F)(F)F)cc2)(C(F)(F)F)C(F)(F)F)cc(C)c1NC(=O)c1cccc(NC(=O)c2cccnc2Cl)c1 [1-131]
insecticidal activity [1]: 100% | insecticidal activity [2]: 100%

CCc1cc(C(n2cc(C(F)(F)F)cn2)(C(F)(F)F)C(F)(F)F)cc(C)c1NC(=O)c1cccc(NC(=O)c2cccnc2Cl)c1 [2-105, 2-chloro-N-{3-[(2-ethyl-4-{1,1,1,3,3,3-hexafluoro-2-[4-(trifluoromethyl)-1H-pyrazol-1-yl]propan-2-yl}-6-methylphenyl)carbamoyl]-phenyl}pyridine-3-carboxamide]
insecticidal activity [1]: 100% | insecticidal activity [2]: 100%

CCc1cc(C(Oc2ccc(I)cc2)(C(F)(F)F)C(F)(F)F)cc(C)c1NC(=O)c1cccc(NC(=O)c2cccnc2Cl)c1 [1-152]
insecticidal activity [1]: 100% | insecticidal activity [2]: 100%

CCc1cc(C(Oc2ccnc(C(F)(F)C(F)(F)F)c2)(C(F)(F)F)C(F)(F)F)cc(C)c1NC(=O)c1cccc(NC(=O)c2cccnc2Cl)c1 [1-142]
insecticidal activity [1]: 100% | insecticidal activity [2]: 100%

O=C(Nc1c(Br)cc(C(n2cc(Cl)cn2)(C(F)(F)F)C(F)(F)F)cc1Br)c1cccc(NC(=O)c2ccccc2F)c1 [2-33]
insecticidal activity [1]: 100% | insecticidal activity [2]: 100%

Cc1cc(C(n2cnc(Cl)c2Cl)(C(F)(F)F)C(F)(F)F)cc(C)c1NC(=O)c1cccc(NC(=O)c2cccnc2Cl)c1 [2-143]
insecticidal activity [1]: 100% | insecticidal activity [2]: 100%

Cc1cc(C(n2cccc2Br)(C(F)(F)F)C(F)(F)F)cc(C)c1NC(=O)c1cccc(NC(=O)c2cccnc2Cl)c1 [2-2]
insecticidal activity [1]: 100% | insecticidal activity [2]: 100%

Cc1cc(C(n2cnc(C(F)(F)F)n2)(C(F)(F)F)C(F)(F)F)cc(C)c1NC(=O)c1cccc(NC(=O)c2cccnc2Cl)c1 [2-153]
insecticidal activity [1]: 100% | insecticidal activity [2]: 100%

CC#CCOC(c1cc(I)c(NC(=O)c2cccc(NC(=O)c3ccc(F)cc3)c2)c(I)c1)(C(F)(F)F)C(F)(F)F [1-84]
insecticidal activity [1]: 100% | insecticidal activity [2]: 100%

Cc1cc(C(n2cc(I)c(I)n2)(C(F)(F)F)C(F)(F)F)cc(C)c1NC(=O)c1cccc(NC(=O)c2cccnc2Cl)c1 [2-116]
insecticidal activity [1]: 100% | insecticidal activity [2]: 100%

CCc1cc(C(Oc2ccc(C(F)(F)F)cc2)(C(F)(F)F)C(F)(F)F)cc(C)c1NC(=O)c1cccc(NC(=O)c2cccnc2Cl)c1 [1-130]
insecticidal activity [1]: 100% | insecticidal activity [2]: 100%

CCc1cc(C(n2nc(Br)c(Br)c2Br)(C(F)(F)F)C(F)(F)F)cc(C)c1NC(=O)c1cccc(NC(=O)c2cccnc2Cl)c1 [2-134]
insecticidal activity [1]: 100% | insecticidal activity [2]: 100%

Cc1cc(C(n2cc(Cl)cn2)(C(F)(F)F)C(F)(F)F)cc(Br)c1NC(=O)c1cccc(NC(=O)c2ccccc2F)c1 [2-31]
insecticidal activity [1]: 100% | insecticidal activity [2]: 100%

Cc1cc(C(n2c(Br)nc(Br)c2Br)(C(F)(F)F)C(F)(F)F)cc(C)c1NC(=O)c1cccc(NC(=O)c2cccnc2Cl)c1 [2-144]
insecticidal activity [1]: 100% | insecticidal activity [2]: 100%

CCc1cc(C(ON=Cc2ccc(Cl)cc2)(C(F)(F)F)C(F)(F)F)cc(C)c1NC(=O)c1cccc(NC(=O)c2cccnc2Cl)c1 [1-138]
insecticidal activity [1]: 100% | insecticidal activity [2]: 100%

CCc1cc(C(Oc2ccc(Br)cc2)(C(F)(F)F)C(F)(F)F)cc(CC)c1NC(=O)c1cccc(NC(=O)c2cccnc2Cl)c1 [1-177]
insecticidal activity [1]: 100% | insecticidal activity [2]: 100%

CC#CCOC(c1cc(I)c(NC(=O)c2cccc(NC(=O)c3cccnc3Cl)c2)c(I)c1)(C(F)(F)F)C(F)(F)F [1-85]
insecticidal activity [1]: 100% | insecticidal activity [2]: 100%

CCc1cc(C(Oc2ccc(Cl)c(Cl)c2)(C(F)(F)F)C(F)(F)F)cc(C)c1NC(=O)c1cccc(NC(=O)c2cccnc2Cl)c1 [1-151]
insecticidal activity [1]: 100% | insecticidal activity [2]: 100%

CCc1cc(C(n2cc(Br)cn2)(C(F)(F)F)C(F)(F)F)cc(C)c1NC(=O)c1cccc(NC(=O)c2cccnc2Cl)c1 [2-87]
insecticidal activity [1]: 100% | insecticidal activity [2]: 100%

CCc1cc(C(n2nc(Br)c(Br)c2Br)(C(F)(F)F)C(F)(F)F)cc(C)c1NC(=O)c1cccc(NC(=O)c2cccnc2F)c1 [2-128]
insecticidal activity [1]: 100% | insecticidal activity [2]: 100%

Cc1cc(C(n2cc(Cl)cn2)(C(F)(F)F)C(F)(F)F)cc(Br)c1NC(=O)c1cccc(NC(=O)c2c(F)cccc2F)c1 [2-41]
insecticidal activity [1]: 100% | insecticidal activity [2]: 100%

O=C(Nc1c(I)cc(C(n2cc(Cl)cn2)(C(F)(F)F)C(F)(F)F)cc1I)c1cccc(NC(=O)c2ccccc2F)c1 [2-34]
insecticidal activity [1]: 100% | insecticidal activity [2]: 100%

CCc1cc(C(Oc2cccnc2)(C(F)(F)F)C(F)(F)F)cc(C)c1NC(=O)c1cccc(NC(=O)c2cccnc2Cl)c1 [1-171]
insecticidal activity [1]: 100% | insecticidal activity [2]: 100%

CCc1cc(C(n2cc(Cl)cn2)(C(F)(F)F)C(F)(F)F)cc(C)c1NC(=O)c1cccc(NC(=O)c2cccnc2F)c1 [2-44]
insecticidal activity [1]: 100% | insecticidal activity [2]: 100%

Cc1cc(C(Oc2ccc(Cl)nc2)(C(F)(F)F)C(F)(F)F)cc(C)c1NC(=O)c1cccc(NC(=O)c2cccnc2Cl)c1 [1-182]
insecticidal activity [1]: 100% | insecticidal activity [2]: 100%

Cc1cc(C(n2cc(Cl)cn2)(C(F)(F)F)C(F)(F)F)cc(Br)c1NC(=O)c1cccc(NC(=O)c2cccnc2Cl)c1 [2-59]
insecticidal activity [1]: 100% | insecticidal activity [2]: 100%

O=C(Nc1c(I)cc(C(n2cc(Cl)cn2)(C(F)(F)F)C(F)(F)F)cc1I)c1cccc(NC(=O)c2cccnc2Cl)c1 [2-63]
insecticidal activity [1]: 100% | insecticidal activity [2]: 100%

CCc1cc(C(Oc2ccc(C#N)cc2)(C(F)(F)F)C(F)(F)F)cc(C)c1NC(=O)c1cccc(NC(=O)c2cccnc2Cl)c1 [1-168]
insecticidal activity [1]: 100% | insecticidal activity [2]: 100%

Cc1cc(C(n2nccn2)(C(F)(F)F)C(F)(F)F)cc(C)c1NC(=O)c1cccc(NC(=O)c2cccnc2Cl)c1 [2-147]
insecticidal activity [1]: 100% | insecticidal activity [2]: 100%

CCc1cc(C(Oc2ccc(Cl)cc2)(C(F)(F)F)C(F)(F)F)cc(CC)c1NC(=O)c1cccc(NC(=O)c2cccnc2Cl)c1 [1-176]
insecticidal activity [1]: 100% | insecticidal activity [2]: 100%

Cc1cc(C(n2nc(Br)c(Br)c2Br)(C(F)(F)F)C(F)(F)F)cc(C)c1NC(=O)c1cccc(NC(=O)c2cccnc2Cl)c1 [2-133]
insecticidal activity [1]: 100% | insecticidal activity [2]: 100%
